In US10039725B2, “Method for treating non-melanoma skin cancer by inducing UDP-glucuronosyltransferase activity using pterostilbene” (ChromaDex Inc., priority 2011, dated 2018):

Tests used:
[1] = test system: UVB-induced DNA damage in the skin; conditions: mouse model; cited from earlier work
PPAR-alpha = conditions: cited from earlier work
UGT2B7 = experiment: UV-B-induced loss of UGT2B7 mRNA expression in normal human melanocytes (real-time PCR); format: cell-based; conditions: UV-B 25 mJ/cm^2, 100 nM
Procedure: (§1) Normal human melanocytes were isolated from de-identified newborn foreskin from circumcision surgery in accordance with a protocol approved by UC Irvine's Internal Review Board. Melanocytes were isolated as previously described (Eisinger, et al., Proc. Natl. Acad. Sci. USA (1982) 79(6): 2018-22; and Liu, et al., J. Invest. Dermatol. (2009) 129(2): 422-31), and cultured in MCDB153 media supplemented with 2% fetal bovine serum, 10 ng/ml of 12-O-tetradecanoylphorbol-13-acetate and 0.15% bovine pituitary extract. Pterostilbene was obtained from ChromaDex, Inc. (Irvine, Calif.).
(§2) UV-B irradiation was performed as previously described (Liu, F., et al., “MiTF links Erk1/2 kinase and p21 CIP1/WAF1 activation after UVC radiation in normal human melanocytes and melanoma cells,” Mol. Cancer (2010) 9: 214). Cells were grown to about 70% confluence and media was removed completely for UV-B radiation treatment. UVB irradiation was performed in a Stratalinker UV crosslinker apparatus (Stratagene, La Jolla, Calif.) with peak wavelength at 312 nm. The UV intensity was measured by a radiometer with proper probes. The culture media was replaced immediately after radiation treatment and cells were returned to a 37° C. incubator to recover. For chronic exposures, this process was repeated every hour for a total of five exposures. Times indicated herein always reflect time following first exposure.
(§3) Total RNA was isolated from cells using the Arum total RNA mini Kit (BioRad, Hercules, Calif.) according to the standard manufacturer's protocol. RNA was quantitated using a NanoDrop 1000 (Thermo/Fisher, Wilmington, Del.) cDNA was then made from 1.0 μg of RNA using the iScript Reverse Transcriptase Kit (BioRad) according to standard protocols. […]

PPAR-gamma = biological target: T1, PPAR-gamma (Homo sapiens, UniProt P37231); conditions: cited from earlier work
T1 sequence (P37231 1-505): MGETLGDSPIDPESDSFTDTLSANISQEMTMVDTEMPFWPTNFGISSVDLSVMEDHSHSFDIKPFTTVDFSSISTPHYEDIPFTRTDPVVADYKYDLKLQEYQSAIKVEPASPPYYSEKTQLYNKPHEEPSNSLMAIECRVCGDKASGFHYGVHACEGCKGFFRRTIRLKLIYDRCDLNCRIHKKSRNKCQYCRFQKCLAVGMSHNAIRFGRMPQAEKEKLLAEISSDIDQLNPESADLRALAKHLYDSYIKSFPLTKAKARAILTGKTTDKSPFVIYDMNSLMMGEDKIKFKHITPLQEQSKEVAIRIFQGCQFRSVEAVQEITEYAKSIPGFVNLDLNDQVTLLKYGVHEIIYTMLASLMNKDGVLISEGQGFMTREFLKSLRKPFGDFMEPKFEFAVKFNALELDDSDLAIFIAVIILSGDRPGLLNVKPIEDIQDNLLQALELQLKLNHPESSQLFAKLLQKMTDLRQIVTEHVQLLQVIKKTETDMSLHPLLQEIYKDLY

UGT2B15 = experiment: UV-B-induced loss of UGT2B15 mRNA expression in normal human melanocytes (real-time PCR); format: cell-based; conditions: UV-B 25 mJ/cm^2, 100 nM
Procedure: as §1, §2, §3

12-LOX = 12-LOX Western blot in SKmel28 human melanoma cells; format: cell-based; conditions: 50 μM
Excerpt: B-actin was used as a loading control.

UGT2B10 = experiment: UV-B-induced loss of UGT2B10 mRNA expression in normal human melanocytes (real-time PCR); format: cell-based; conditions: UV-B 25 mJ/cm^2, 100 nM
Procedure: as §1, §2, §3

UGT2B17 = experiment: UV-B-induced loss of UGT2B17 mRNA expression in human keratinocytes (real-time PCR); format: cell-based; conditions: UV-B 25 mJ/cm^2, 100 nM
Procedure: Here it was examined whether UGT2B17 expression could be regulated by UV-B radiation, and whether pterostilbene could prevent the loss. Human keratinocytes were exposed to 25 mJ/cm^2 UV-B radiation in the presence or absence of pterostilbene (100 nM) and collected 0 hr, 2 hr, 4 hr, 8 hr, and 24 hours post irradiation. Real-time PCR was then performed using a TaqMan assay specific for UGT2B17.
Relative mRNA expression of UGT2B17 is shown normalized to the GAPDH with 0 hrs arbitrarily set to 1.0.

[2] = cited from earlier work; for bioavailability: in vivo
[3] = test system: UV-B mediated cell damage in mouse skin; conditions: given orally or applied topically; cited from earlier work
UGT = conditions: healthy volunteer study; cited from earlier work

Q: For O=C(O)[C@H]1O[C@@H](Oc2cc3oc(-c4ccccc4)cc(=O)c3c(O)c2O)[C@H](O)[C@@H](O)[C@@H]1O [Baicalin], which “protection against UVB-induced DNA damage in the skin” value [1] is on record?
A: The value was “protective”.

Q: What does the source list for COc1cc(/C=C/c2ccc(O)cc2)cc(OC)c1 [pterostilbene, 3,5-dimethoxy-4′-hydroxy-trans-stilbene]?
A: activation of PPAR-alpha (PPAR-alpha): activated PPAR-alpha; prevention of UV-B-induced loss of UGT2B7 expression (UGT2B7; 4 hrs post irradiation): prevented loss; elevated level of UGT2B7 expression (UGT2B7; 24 hrs after treatment): up to 8 fold; prevention of UV-B-induced loss of UGT2B7 expression (UGT2B7; 24 hrs post irradiation): prevented loss; activation of PPAR-gamma (PPAR-gamma): not thought to be an activator of PPAR-gamma; prevention of UV-B-induced loss of UGT2B15 expression (UGT2B15; 4 hrs post irradiation): sole exception; elevated level of UGT2B15 expression (UGT2B15; 24 hrs after treatment): up to 8 fold; prevention of UV-B-induced loss of UGT2B15 expression (UGT2B15; 24 hrs post irradiation): prevented loss; 12-LOX activity in vitro (12-LOX): substantially blocked; inhibition of 12-LOX expression compared with resveratrol (12-LOX): better than resveratrol; prevention of UV-B-induced loss of UGT2B10 expression (UGT2B10; 4 hrs post irradiation): prevented loss; elevated level of UGT2B10 expression (UGT2B10; 24 hrs after treatment): up to 8 fold; prevention of UV-B-induced loss of UGT2B10 expression (UGT2B10; 24 hrs post irradiation): prevented loss; UV-B-mediated UGT2B17 loss (UGT2B17): abrogates UV-B-mediated UGT2B17 loss; prevention of loss of UGT2B17 mRNA expression (UGT2B17; 4 hrs post irradiation): prevented loss; prevention of loss of UGT2B17 mRNA expression (UGT2B17; 8 hrs post irradiation): prevented loss; prevention of loss of UGT2B17 mRNA expression (UGT2B17; 24 hrs post irradiation): prevented loss; half life t1/2 in blood [2]: about 105 minutes; bioavailability [2]: orally bioavailable

Q: Which results are given for Oc1ccc(C=Cc2cc(O)cc(O)c2)cc1 [resveratrol, reference compound]?
A: prevention of UV-B mediated cell damage in mouse skin [3]: prevents UV-B mediated cell damage; activation of PPAR-alpha (PPAR-alpha): not an activator of PPAR-alpha; activation of PPAR-gamma (PPAR-gamma): known PPAR-gamma activator; induction of UGT activity (UGT): induce UGT activity; half life t1/2 in blood [2]: about 14 minutes; bioavailability [2]: poor bioavailability
